Patent US20250188057A1, “NON-AROMATIC CYCLIC-PYRIMIDINE ANALOGS AS GLUCOSYLCERAMIDE SYNTHASE INHIBITORS” (Merck Sharp & Dohme LLC, priority 2022, published 2025)

Target: glucosylceramide synthase (GCS) (Homo sapiens (Human), UniProt Q16739)
Test: UDP-Glo glucosylceramide synthase biochemical assay
Conditions: endogenous GCS in Golgi preparations isolated from human A375 malignant melanoma skin cells; UDP detection by luminescence
Source text: A UDP-Glo™ glucosylceramide synthase biochemical assay was utilized to evaluate the effect of test compounds on the activity of endogenous levels of GCS enzyme contained within Golgi preparations isolated from human A375 malignant melanoma skin cells. The UDP-Glo™ glucosylceramide synthase assay uses UDP-Glucose as a nucleotide-glycosyl donor and ceramide as substrate acceptor molecules. In the reaction, glucosylceramide synthase (GCS) transfers glucose from UDP-Glucose to ceramide. Glucosylceramide and UDP are released as products.
Using Promega's UDP-Glo™ Glycosyltransferase assay kit (Promega Corporation, Madison, WI, USA (Promega)), GCS activity was indirectly measured by detecting the amount of UDP produced. An aliquot of GCS enzyme (1.5 μg crude golgi preparation, total protein) and titrated test compound were aliquoted to each well and incubated for 30 minutes at room temperature. […] An equivalent volume of substrate mixture was then added to each well. Following a 20 h incubation at room temperature to allow for GCS turnover of substrate, an equal volume of UDP detection reagent (Promega) was added to each well and incubated for an additional 75 minutes at room temperature to simultaneously convert the accumulated UDP product into ATP and generate light in a luciferase reaction. The generated light was detected using a luminometer. […] luminescence values (RLUs) were normalized to mean “min” and “max” effects, as determined on each plate. “Min” was defined as the mean of the values of the wells treated with vehicle (DMSO) and which represent 0% inhibition; “max” was defined as the mean of the values of the wells treated with a reference inhibitor and which represent the 100% effect. Values for % Emax and EC50 were determined by best-fitting the normalized data to a curve in Activity Base along a four-parameter logistic nonlinear regression (4PL) model (based on the Levenberg-Marquardt algorithm and defined by the equation below): […]
where: n is 4PMin (bottom of the curve); m is 4PMax (top of the curve); i is IP (inflection point of curve); and p is slope. See Levenberg, K., “A Method for the Solution of Certain Problems in Least Squares”, Quart. Appl. Math. 2, (1944), pp 164-168 and Marquardt, D., “An Algorithm for Least Squares Estimation on Nonlinear Parameters”, SIAM J. Appl. Math 11, (1963) pp 431-441.

glucosylceramide synthase (GCS), sequence (Q16739 whole entry): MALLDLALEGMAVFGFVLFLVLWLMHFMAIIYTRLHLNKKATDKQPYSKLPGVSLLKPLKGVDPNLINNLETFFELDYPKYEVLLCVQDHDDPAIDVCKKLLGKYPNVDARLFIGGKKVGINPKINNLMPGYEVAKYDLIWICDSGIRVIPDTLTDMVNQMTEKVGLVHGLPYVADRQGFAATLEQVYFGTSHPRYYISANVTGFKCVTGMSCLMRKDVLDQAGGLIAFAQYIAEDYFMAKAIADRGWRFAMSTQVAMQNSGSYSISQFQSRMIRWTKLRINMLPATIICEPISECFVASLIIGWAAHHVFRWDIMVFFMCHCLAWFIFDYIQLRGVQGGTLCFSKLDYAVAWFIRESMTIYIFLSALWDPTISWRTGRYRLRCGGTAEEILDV

Row | Structure (SMILES) | IC50
1 | N#Cc1cnc(C2CC2)nc1OC[C@H]1CCN(c2ncccc2C(F)F)C1 [Compound 26, (S)-2-cyclopropyl-4-((1-(3-(difluoromethyl)pyridin-2-yl)pyrrolidin-3-yl)methoxy)pyrimidine-5-carbonitrile] | 4660 nM
2 | N#Cc1cnc(C2CC2)nc1OC[C@H]1CCN(c2cccc3cnccc23)C1 [Compound 33, (S)-2-cyclopropyl-4-((1-(isoquinolin-5-yl)pyrrolidin-3-yl)methoxy)pyrimidine-5-carbonitrile] | 1400 nM
3 | Cc1nc(N2CC(c3nc4ccccc4n3C)C2)cc(N2CC(CC(C)C)CC2=O)n1 (stereo not drawn) [Compound 117, 4-isobutyl-1-(2-methyl-6-(3-(1-methyl-1H-benzo[d]imidazol-2-yl)azetidin-1-yl)pyrimidin-4-yl)pyrrolidin-2-one] | 1140 nM
4 | CC1(COc2nc(C3CC3)ncc2C#N)CCN(c2ncc(C(F)(F)F)cn2)C1 (stereo not drawn) [Compound 52, 2-cyclopropyl-4-((3-methyl-1-(5-(trifluoromethyl)pyrimidin-2-yl)pyrrolidin-3-yl)methoxy)pyrimidine-5-carbonitrile] | 762 nM
5 | N#Cc1cnc(C2CC2)nc1N1CCN(Cc2ccccc2)C[C@@H]1COCc1ccccc1 [Compound 79, (R)-4-(4-bnezyl-2-((benzyloxy)methyl)piperazin-1-yl)-2-cyclopropylpyrimidine-5-carbonitrile] | 3260 nM
6 | N#Cc1cnc(C2CC2)nc1NC1CCN(Cc2ccccc2)C1c1ccccc1 (stereo not drawn) [Compound 82, 4-((1-benzyl-2-phenylpyrrolidin-3-yl)amino)-2-cyclopropylpyrimidine-5-carbonitrile] | 770 nM
7 | COc1ccc(N2CCC3(CCN(c4nc(C5CC5)ncc4CO)C3)C2)cc1 (stereo not drawn) [Compound 125, (2-cyclopropyl-4-(7-(4-methoxyphenyl)-2,7-diazaspiro[4.4]nonan-2-yl)pyrimidin-5-yl)methanol] | 902 nM
8 | COC(=O)c1cc(N2CC(c3nc4ccccc4n3C)C2)nc(C)n1 [Compound 121, methyl 2-methyl-6-(3-(1-methyl-1H-benzo[d]imidazol-2-yl)azetidin-1-yl)pyrimidine-4-carboxylate] | 2820 nM
9 | N#Cc1cnc(C2CC2)nc1N1CCC(O)(c2cccc(C(F)(F)F)c2)CC1 [Compound 73, 2-cyclopropyl-4-(4-hydroxy-4-(3-(trifluoromethyl)phenyl)piperidin-1-yl)pyrimidine-5-carbonitrile] | 1110 nM
10 | N#Cc1cnc(C2CC2)nc1OC1CN(Cc2ccc(F)cc2)C1 [Compound 60, 2-cyclopropyl-4-((1-(4-fluorobenzyl)azetidin-3-yl)oxy)pyrimidine-5-carbonitrile] | 3950 nM
11 | Cc1nc(N2CC(c3nc4ccccc4n3C)C2)cc(N2CC(c3ccccc3)CC2=O)n1 (stereo not drawn) [Compound 119, 1-(2-methyl-6-(3-(1-methyl-1H-benzo[d]imidazol-2-yl)azetidin-1-yl)pyrimidin-4-yl)-4-phenylpyrrolidin-2-one] | 3030 nM
12 | OCc1c(Cl)nc(C2CC2)nc1N1Cc2nc(Br)sc2C1 [Compound 111, (4-(2-bromo-4,6-dihydro-5H-pyrrolo[3,4-d]thiazol-5-yl)-6-chloro-2-cyclopropylpyrimidin-5-yl)methanol] | 3260 nM
13 | N#Cc1cnc(C2CC2)nc1OC[C@H]1CCN(c2cnc(-c3ccccc3)o2)C1 [Compound 8, (S)-2-cyclopropyl-4-((1-(2-phenyloxazol-5-yl)pyrrolidin-3-yl)methoxy)pyrimidine-5-carbonitrile] | 889 nM
14 | N#Cc1cnc(C2CC2)nc1NC1CN(C(c2ccccc2)c2ccccc2)C1 [Compound 92, 4-((1-benzhydrylazetidin-3-yl)amino)-2-cyclopropylpyrimidine-5-carbonitrile] | 2900 nM
15 | N#Cc1cnc(C2CC2)nc1NC[C@H]1CCN(c2ccc(-n3cccn3)nc2)C1 [Compound 48, (R)-4-(((1-(6-(1H-pyrazol-1-yl)pyridin-3-yl)pyrrolidin-3-yl)methyl)amino)-2-cyclopropylpyimidine-5-carbonitrile] | 969 nM

Now those with a lower IC50, led by results:

Row | IC50 | Structure (SMILES)
16 | 80 nM | Cc1nnc(-c2ccc(N3CC[C@H](COc4nc(C5CC5)ncc4C#N)C3)cc2)s1 [Compound 13, (S)-2-cyclopropyl-4-((1-(4-(5-methyl-1,3,4-thiadiazol-2-yl)phenyl)pyrrolidin-3-yl)methoxy)pyrimidine-5-carbonitrile]
17 | 14 nM | N#Cc1cnc(C2CC2)nc1NC1CCCc2sc(C3CCCCC3)nc21 (stereo not drawn) [Compound 94, 4-((2-cyclohexyl-4,5,6,7-tetrahydrobenzo[d]thiazol-4-yl)amino)-2-cyclopropylpyrimidine-5-carbonitrile]
18 | 195 nM | N#Cc1cnc(C2CC2)nc1OCC1CCC(c2ccccc2)O1 (stereo not drawn) [Compound 102, 2-cyclopropyl-4-((5-phenyltetrahydrofuran-2-yl)methoxy)pyrimidin-5-carbonitrile]
19 | 231 nM | CCOc1ccc(N2CC[C@H](COc3nc(C4CC4)ncc3C#N)C2)cn1 [Compound 25, (S)-2-cyclopropyl-4-((1-(6-ethoxypyridin-3-yl)pyrrolidin-3-yl)methoxy)pyrimidine-5-carbonitrile]
20 | 78 nM | N#Cc1cnc(C2CC2)nc1OC[C@H]1CCN(c2ccc(-n3cccn3)nc2)C1 [Compound 55, (S)-4-((1-(6-(1H-pyrazol-1-yl)pyridin-3-yl)pyrrolidin-3-yl)methoxy)-2-cyclopropylpyrimidine-5-carbonitrile]
21 | 37 nM | N#Cc1cnc(C2CC2)nc1OC[C@H]1CCN(c2ccc(-c3ccon3)cc2)C1 [Compound 19, (S)-2-cyclopropyl-4-((1-(4-(isoxazol-3-yl)phenyl)pyrrolidin-3-yl)methoxy)pyrimidine-5-carbonitrile]
22 | 579 nM | OCc1cnc(C2CC2)nc1OC[C@H]1CCN(c2ccc(C(F)(F)F)nc2)C1 [Compound 1, (S)-(2-cyclopropyl-4-((1-(6-(trifluoromethyl)pyridin-3-yl)pyrrolidin-3-yl)methoxy)pyrimidin-5-yl)methanol]
23 | 7.5 nM | OCc1c(Cl)nc(C2CC2)nc1NC1CCCc2sc(C3CCCCC3)nc21 (stereo not drawn) [Compound 115, (4-chloro-6-((2-cyclohexyl-4,5,6,7-tetrahydrobenzo[d]thiazol-4-yl)amino)-2-cyclopropylpyrimidin-5-yl)methanol]
24 | 20 nM | N#Cc1cnc(C2CC2)nc1OCC1CCN(c2ccc(Cl)cc2)C1 (stereo not drawn) [Compound 57, 4-((1-(4-chlorophenyl)pyrrolidin-3-yl)methoxy)-2-cyclopropylpyrimidine-5-carbonitrile]
25 | 593 nM | Cc1nc2c(s1)CCCC2Nc1nc(C2CC2)nc(Cl)c1CO (stereo not drawn) [Compound 109, (4-chloro-2-cyclopropyl-6-((2-methyl-4,5,6,7-tetrahydrobenzo[d]thiazol-4-yl)amino)pyrimidin-5-yl)methanol]
26 | 266 nM | Cc1nc2c(s1)CCCC2Nc1nc(C2CC2)nc(Cl)c1CO (single isomer, unassigned) [Compound 110, (4-chloro-2-cyclopropyl-6-((2-methyl-4,5,6,7-tetrahydrobenzo[d]thiazol-4-yl)amino)pyrimidin-5-yl)methanol]
27 | 377 nM | N#Cc1cnc(C2CC2)nc1OC[C@H]1CCN(c2ccc(C3CC3)nc2)C1 [Compound 24, (S)-2-cyclopropyl-4-((1-(6-cyclopropylpyridin-3-yl)pyrrolidin-3-yl)methoxy)pyrimidine-5-carbonitrile]
